According to ChEMBL document CHEMBL3507680, “University of Dundee, Gates Library screen for HepG2 cell viability”:

Experiment: Human HepG2 cell viability assay in 384 well format
Type: toxicity, cell-based
Set-up: dose 125 nL, time 70.5 hour; cytotoxicity at 70.5 h: concentration not given beside the values
Conditions: HepG2 cells, read-out: Inhibition

Structure (SMILES)	cytotoxicity at 70.5 h [%]
Nc1nc2c(c(NCc3ccncc3)n1)CCCC2	0.39
CNC(=O)c1ccc(-c2ccc(CNC(=O)COC)cc2)nc1C	-10.8
O=C([C@H]1C[C@H]2OCC[C@H]2N(C(=O)c2ccncc2)C1)N1CCCC1	-5.12
O=C(O)[C@@H]1CN(CC(=O)N2CCCCC2)C[C@H]1c1ccc(F)cc1	-2.52
N#CC1COCCN1C(=O)c1cccc2cc[nH]c12 (stereo unspecified)	-13.5
O=C(c1ccccn1)N1CCCC2(CCN(c3ccsc3)C2=O)C1 (stereo unspecified)	12.8
NC(=O)NC(=O)CCn1ccc(-c2ccccc2)n1	16
COc1ccc(NS(=O)(=O)c2cnc(NC(C)=O)s2)cc1	-8.08
COC(=O)c1cccc(CN(C)C(C)c2ccccn2)c1 (stereo unspecified)	-24.9
CCC[C@H]1CN(Cc2ccc(N(C)C)nc2)C[C@@H]1NS(=O)(=O)CC	-1.04
Cn1c(C(=O)NCC2(N)CCCC2)cc2ccccc21	3.39
CN1CCN(c2ccc(NC(=O)c3cccs3)c(C(F)(F)F)c2)CC1	-9.41
Cc1cccc(CN2CCC3(CCCN(C(=O)N(C)C)C3)C2=O)n1 (stereo unspecified)	-3.06
COCCN(C)c1cnn(C)c(=O)c1Br	-14.7
COc1ccc(S(=O)(=O)Cc2noc(CC(C)C)n2)cc1	5.74
c1cc(CN2C[C@H](OCC3CCOCC3)[C@H]3COC[C@H]32)cs1	-7.76
CCC1=NN2C(=N)/C(=C\c3cccn3-c3cccc(Cl)c3)C(=O)N=C2S1	-0.175
CCC(C)NC(=O)c1cc(S(=O)(=O)N(C)C)c(C)s1 (stereo unspecified)	-4.34
NC(=O)c1ccnc(N2CCN(Cc3ccc(F)cc3Cl)CC2)c1	-15.2
Clc1ccccc1CCn1ccnc1-c1cn(C2CCNCC2)nn1	-8.18
O=C(c1ccco1)N1CCC[C@]2(C[C@H](Oc3ncccc3F)CO2)C1	-1.08

Structure (SMILES)	cytotoxicity at 70.5 h [%]
Cc1cc2ccncc2n1CC1(O)CCN(C(=O)c2ccccn2)CC1	-1.41
CN(C)S(=O)(=O)N1CCC(Oc2ccc(C#N)cn2)CC1	-1.45
Cc1ccc(CN2Cc3nccn3CC(CN(C)C)C2)s1 (stereo unspecified)	-7.65
CN(C)CCN1C[C@@H]2CN(S(=O)(=O)c3cccs3)C[C@@H]2C1=O	-10.9
O=C(c1ccsc1)N1CCN2C[C@H](OCc3cccnc3)C[C@H]2C1	-13.4
Fc1ccc(CN2C[C@@H]3OCCN(CC4CCCO4)[C@@H]3C2)cc1 (stereo partly specified)	11
CCCNC(=O)N1CCN(Cc2cc(C)no2)CC1	-8.29
COCCN1CCN(CC(=O)N(C)Cc2ccsc2)CC1C (stereo unspecified)	-7.6
Cc1nc(N)nc(C)c1CC(=O)NCc1ccc2nonc2c1	-9.8
O=C1C[C@H]2[C@@H](CCN2C(=O)c2ccccc2)N1CCN1CCOCC1	-5.41
CC(CNC(=O)CCc1ccccn1)c1ccsc1 (stereo unspecified)	-16.6
CCc1noc(C)c1C(=O)N1CCCC1Cn1cc(C)cn1 (stereo unspecified)	25.2
CS(=O)(=O)N1CCOCC12CCN(Cc1ccoc1)CC2	-5.63
CCn1cnnc1CCNc1nc(C)cc(C)c1C#N	27.1
O=C(N[C@@H]1CN(CC2CC2)[C@@H]2CCCO[C@@H]21)c1cscn1	-1.52
COc1ccc(OCCCN(C)C(=O)C2CCCN2C(N)=O)cc1 (stereo unspecified)	-3.9
CNc1cc(N2CCC(O)(CNC(=O)c3ccc(C)nc3)C2)ncn1 (stereo unspecified)	-6.58
O=C(NCC(c1ccccc1)N1CCOCC1)Nc1cn[nH]c1 (stereo unspecified)	1.36
CNS(=O)(=O)c1ccc(C(=O)Nc2ccc3c(c2)C(=O)NC3)cc1	1.61
CN1CCC(CNC(=O)c2ccc(O)nc2)c2ccccc21 (stereo unspecified)	1.07
Cc1cc2n(n1)CC(CNCc1ccccc1-n1cccn1)CN2 (stereo unspecified)	-4.8

Structure (SMILES)	cytotoxicity at 70.5 h [%]
c1coc(CN2CCc3ncnc(C4CCOC4)c3CC2)c1 (stereo unspecified)	-9.16
CCc1nc(CN2CCCC(NCc3cnn(C(C)(C)C)c3)C2)no1 (stereo unspecified)	-12.7
CCC1CN(CC(=O)N2CCC2)CCN1CCOC (stereo unspecified)	-2.85
Cc1cnc(C(=O)NCc2ccnc(N(C)C)c2)cn1	-2.67
CC(c1ccc2c(c1)OCCO2)N(C)C(=O)c1ccnnc1 (stereo unspecified)	-5.69
CCNC(=O)NC1CCN(c2ccc(S(=O)(=O)CC)cc2)CC1	0.434
CO[C@H]1C[C@@H]2CN(C(=O)c3cccc4c3OCCO4)C[C@@H]2C1	20.7
COCCN(CC(C)C)C(=O)c1cccc(Nc2cnccn2)c1	-13.9
NC(=O)C1CCN(C(=O)c2ccc(Sc3ccccn3)cc2)CC1	-2.31
CCc1cnc(CN2CCCC(c3cc(C)[nH]n3)C2)o1 (stereo unspecified)	-8.59
CCN1CCN(c2ccc(NC(C)c3nc(C(C)C)no3)c(C)c2)CC1 (stereo unspecified)	-12.5
O=C1CC2(CCNCC2)C(=O)N1Cc1ccc(F)cc1	29.9
COc1ccc2oc(-c3cn(C)nc3C)c(O)c(=O)c2c1	-1.34
Cc1csc(C(C)(C)NCc2ncc(-c3ccccc3)o2)n1	-7.99
CC(C)c1nc2cc(NC(=O)c3n[nH]c4c3CCC4)ccc2n1C	-9.08
CC1(C)CC1(C(=O)N1CC(c2cccnc2)C1)c1ccc(F)cc1 (stereo unspecified)	29.7
OCCOCc1n[nH]c2c1CN(Cc1cccs1)C2	-2.23
CCOc1cc(F)ccc1NC(=O)NCC(c1cnn(C)c1)N(C)C (stereo unspecified)	-0.683
CCCNCc1cc2c(C)cc(C)cc2n2c(=O)n(C)nc12	-8.78
Cc1ccc2nc(CNCCCN3CCCC3=O)cc(O)c2c1	14.6
CCn1ncc2c1C(COC)CN(Cc1nccs1)C2 (stereo unspecified)	30.6

Structure (SMILES)	cytotoxicity at 70.5 h [%]
Cn1cc(C(=O)N2CCCC(c3ccncc3)C2)cn1 (stereo unspecified)	-7.32
Nc1nc(N)c2c(n1)OC1(CCCN(Cc3nccs3)CC1)C2 (stereo unspecified)	-9.72
Cc1cc(C)n(CC(=O)N2CCC(Nc3cccnn3)CC2)n1	-5.61
Cc1ccccc1CN(CCO)Cc1ncc[nH]1	-12.3
Cc1cccc(CN2CCN(c3nc(CO)cs3)CC2)c1	-4.76
CC(C)(C)CN1CCC(c2nccnc2Nc2cnccn2)CC1	-1.64
O=C(NCc1ccccc1)[C@H]1C[C@@H]2CN(S(=O)(=O)C3CC3)C[C@H]1O2	-10.1
O=C(CCc1ncc(-c2ccc(F)cc2)o1)NCCN1CCOCC1	-3.91
CC(=O)Nc1cccc2c1ccn2CC(=O)Nc1nc[nH]n1	-2.28
CCCc1nnc(NC2CCN(Cc3ccc(F)c(F)c3)CC2)o1	-6.56
Cn1ncc(NC(=O)c2noc3c2CCCC3)c1C(N)=O	-5.51
CN1CCC(c2nnc3n2CCN(S(=O)(=O)c2ccccc2)C3)CC1	-5.15
CN1CCC(NC(=O)Nc2ccc(F)c(-n3cccc3)c2)C1=O (stereo unspecified)	-12.5
CCN(Cc1nc(COC)no1)C(=O)CCn1c(C)cc2ccccc21	-0.00353
O=C(CCOc1ccccc1)N1CCCC(n2cncn2)C1 (stereo unspecified)	2.02
CCCc1nc(C)c(C(=O)NC2CCN(c3ncccn3)CC2)s1	-9.16
CN(C)CCOCC1CN(Cc2ccoc2)Cc2nnn(C)c21 (stereo unspecified)	-11.2
Cc1nn(C)cc1C(=O)NC(CC(C)C)C(=O)Nc1cc[nH]n1 (stereo unspecified)	12.6
